In ChEMBL document CHEMBL1150848, “Radiosumin B, an unusual dipeptide from the cyanobacterium Microcystis aeruginosa” (J Nat Prod, 2001):
Active and inactive are the calls of the source. The rule behind the calls is not given here.

Columns and labels:
[1] = Inhibition of trypsin
[2] = target: Plasminogen (Homo sapiens) (UniProt P00747); assay: Inhibition of plasmin
Sequence of Plasminogen (Homo sapiens) (P00747 97-580 limits assumed): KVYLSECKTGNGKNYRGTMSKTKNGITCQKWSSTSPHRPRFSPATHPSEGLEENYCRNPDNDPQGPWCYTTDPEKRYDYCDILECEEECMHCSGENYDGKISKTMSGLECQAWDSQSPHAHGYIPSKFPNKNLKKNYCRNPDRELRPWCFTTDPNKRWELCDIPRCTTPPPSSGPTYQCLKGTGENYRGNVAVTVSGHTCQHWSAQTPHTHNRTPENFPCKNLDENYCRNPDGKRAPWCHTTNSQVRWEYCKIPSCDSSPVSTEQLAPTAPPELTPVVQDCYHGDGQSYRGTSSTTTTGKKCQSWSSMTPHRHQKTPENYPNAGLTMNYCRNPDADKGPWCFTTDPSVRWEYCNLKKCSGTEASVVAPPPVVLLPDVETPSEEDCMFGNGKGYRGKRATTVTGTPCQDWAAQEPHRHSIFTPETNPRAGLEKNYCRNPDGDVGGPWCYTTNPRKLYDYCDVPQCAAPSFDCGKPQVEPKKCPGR
Sequence of Plasminogen (Homo sapiens) (P00747 581-810 limits assumed): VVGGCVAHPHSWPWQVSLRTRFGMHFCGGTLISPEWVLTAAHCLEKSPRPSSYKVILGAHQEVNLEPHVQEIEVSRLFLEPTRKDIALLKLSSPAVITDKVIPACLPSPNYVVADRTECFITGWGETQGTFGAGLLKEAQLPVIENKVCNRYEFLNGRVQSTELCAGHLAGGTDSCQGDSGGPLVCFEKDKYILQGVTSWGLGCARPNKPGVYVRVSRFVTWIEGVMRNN

- Activity [1]: Active
- Activity [2]: Active
SMILES: CN[C@H]1C=C/C(=C/[C@H](NC(C)=O)C(=O)N[C@@H](/C=C2/C=C[C@H](NC(C)=O)CC2)C(=O)O)CC1
